From article PMC10515640, “Structure-Based Optimization of Covalent, Small-Molecule Stabilizers of the 14-3-3σ/ERα Protein–Protein Interaction from Nonselective Fragments” (Journal of the American Chemical Society, 2023)

Tests used:
14-3-3σ = target: T1, 14-3-3σ (Homo sapiens, UniProt P31947); assay: Mass spectrometry dose response, compound binding to 14-3-3σ in the absence of peptide (apo); conditions: 100 nM compound, 100 nM 14-3-3σ
T1 construct: The 14-3-3 σ isoform (full-length for mass spectrometry and fluorescence anisotropy assays, ΔC for crystallography); made in house; host or cells: E. coli Rosetta 2(DE3)pLysS, pPROEX HTb vector
T1 sequence (P31947 1-248): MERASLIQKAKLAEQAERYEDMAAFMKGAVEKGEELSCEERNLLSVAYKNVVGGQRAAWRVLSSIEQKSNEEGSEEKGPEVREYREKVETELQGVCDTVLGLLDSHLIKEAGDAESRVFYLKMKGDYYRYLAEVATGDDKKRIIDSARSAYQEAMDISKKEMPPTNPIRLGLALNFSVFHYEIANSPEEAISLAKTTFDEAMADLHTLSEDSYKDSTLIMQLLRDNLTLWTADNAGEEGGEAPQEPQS
From the text: (§1) Two orthogonal assays were developed for screening. For the primary assay, mass spectrometry (MS) was used to monitor the formation of the covalent bond between the compound and the native cysteine (Cys38 on 14-3-3σ) (Figure 1D). The assay was first performed in the absence of peptide to determine binding to 14-3-3σ only (apo screening, D1) and then in the presence of both 14-3-3σ and the peptide as an indication of how much the peptide stabilized compound binding (D2). […] As a secondary assay, fluorescence anisotropy (FA) was used. In this case, compounds were titrated to mixtures of 14-3-3σ and FAM-labeled peptides. […] Thus, the two assays are highly complementary; the MS assay reports on compound binding and the FA assay reports on peptide binding. […]
(§2) Mass spectrometry dose response assays were performed on a Waters Acquity UPLC/ Xevo G2-XS Q-Tof mass spectrometer. A Waters UPLC Protein BEH-C4 Column (300 Å, 1.7 μm, 2.1 mm x 50 mm) was used to desalt the samples prior to application on the mass spectrometer. For 19-point MS dose responses, 50 mM compound stocks in DMSO were serially diluted in 3-fold increment in a master plate, then 1000 nl of the compounds were transferred in the assay plates. Master mixes containing 100 nM full-length wild type 14-3-3σ in the absence or presence of […]
(§3) Assay buffer was TRIS (10 mM, pH 8.0) and final volume per well was 50 μl, with final top concentration of compounds dose response series at 1 mM. The reaction mixtures were incubated for 1h at rt before subjected to MS. Four measurements (1h, 8h, 16h, 24h) were performed for time-course experiments. The injection volume for each sample was 6 μl. 24 μl of sample were needed for the time-course experiments, so the total volume in the assay plate was adjusted to 50 μl, to account for the dead volume in the injections. Data collection and automated processing followed a custom workflow, as previously described.1 z Plots were created using GraphPad Prism with the log(agonist) vs. response (variable slope, four parameters) fitting model. […]

14-3-3σ/ERα [1] = target: T2, 14-3-3σ/ERα (Homo sapiens, UniProt P03372+P31947); assay: Mass spectrometry dose response, compound binding to 14-3-3σ in the presence of ERα phosphopeptide; conditions: 100 nM compound, 100 nM 14-3-3σ, ERα-peptide 2 µM
T2 construct: The 14-3-3 σ isoform (full-length for mass spectrometry and fluorescence anisotropy assays, ΔC for crystallography); made in house; host or cells: E. coli Rosetta 2(DE3)pLysS, pPROEX HTb vector
From the text: as §1, §2, §3

14-3-3σ/ERα [2] = target: T2, 14-3-3σ/ERα; assay: Fluorescence anisotropy compound titration, FAM-labeled ERα peptide; assay type: binding; conditions: 10 nM ERα-FAM labeled peptide, 1 µM 14-3-3σ, overnight incubation (24 h); read-out: EC50 value ERα (FA compound titration)
From the text: as §1
diluted in buffer (10 mM HEPES, pH 7.5, 150 mM NaCl, 0.1% Tween20, 1 mg/mL Bovine Serum Albumin (BSA; Sigma-Aldrich). Final DMSO in the assay was always 1%. Dilution series of 14-3-3 proteins or compounds were made in […]
Compound titrations were made by titrating the compound in a 2-fold dilution series (starting at 500 or 1000 µM) to a mix of fluorescein-labeled peptide (10 nM) and 14-3-3σ (concentration at approximately the EC20 to EC30 value of the protein-peptide complex; 1 µM for ERα and 5 µM for C-RAF). Using the ~EC25 value makes the assay sensitive for measuring an increase in PPI formation. Fluorescence anisotropy measurements were performed directly and after overnight incubation at room temperature. […]
Wells containing only FAM-peptide were used to set as G-factor at 35 mP. Data reported are at endpoint. EC50 and apparent Kd values were obtained from fitting the data with a four-parameter logistic model (4PL) in GraphPad Prism 7 for Windows. Data was obtained and averaged based on either three (compound titrations) or two (protein titrations) independent experiments.

14-3-3σ/C-RAF = target: T3, 14-3-3σ/C-RAF (Homo sapiens, UniProt P31947); assay: Mass spectrometry dose response, compound binding to 14-3-3σ in the presence of C-RAF phosphopeptide; conditions: 100 nM compound, 100 nM 14-3-3σ, C-RAF peptide 18 µM
T3 construct: The 14-3-3 σ isoform (full-length for mass spectrometry and fluorescence anisotropy assays, ΔC for crystallography); made in house; host or cells: E. coli Rosetta 2(DE3)pLysS, pPROEX HTb vector
T3 sequence (P31947 1-248): T1 sequence (P31947 1-248)
From the text: as §1, §2, §3

Row | Structure (SMILES) | Percentage (%) bound of compound to 14-3-3σ, APO 1h (14-3-3σ) | Percentage (%) bound of compound to 14-3-3σ, APO 8h (14-3-3σ) | Percentage (%) bound of compound to 14-3-3σ, APO 16h (14-3-3σ) | Percentage (%) bound of compound to 14-3-3σ, APO 24h (14-3-3σ) | Percentage (%) bound of compound to 14-3-3σ, ERα 1h (14-3-3σ/ERα [1]) | Percentage (%) bound of compound to 14-3-3σ, ERα 8h (14-3-3σ/ERα [1]) | Percentage (%) bound of compound to 14-3-3σ, ERα 16h (14-3-3σ/ERα [1]) | Percentage (%) bound of compound to 14-3-3σ, ERα 24h (14-3-3σ/ERα [1]) | EC50 (14-3-3σ/ERα [2]) | Percentage (%) bound of compound to 14-3-3σ, CRAF 1h (14-3-3σ/C-RAF) | Percentage (%) bound of compound to 14-3-3σ, CRAF 8h (14-3-3σ/C-RAF) | Percentage (%) bound of compound to 14-3-3σ, CRAF 24h (14-3-3σ/C-RAF; 24h) | Percentage (%) bound of compound to 14-3-3σ, CRAF 24h (14-3-3σ/C-RAF; head prints 24h)
1 | CC(C)(Oc1ccc(Cl)cc1)C(=O)N1CCC(CCC(=O)CCl)CC1 [compound 37] | 12.0% | 40.8% | 72.0% | 90.3% | 56.4% | 97.6% | 100% | 100% | 44 ± 2 µM | 98.8% | 99.9% | 100% | 99.9%
2 | Cl.NC1CCC(Nc2ccccc2)(C(=O)N2CCC(CNC(=O)CCl)CC2)CC1 (stereo not drawn) [compound 141] | 0% | 0% | 0.8% | 25.6% | 1.0% | 10.2% | 83.3% | 89.9% | > 150 µM | 1.0% | 2.9% | 22.1% | 16.3%
3 | O=C(CCl)NCCC1CCN(C(=O)C2(Nc3ccc(Cl)cc3)CCOCC2)CC1 [compound 148] | 0% | 0% | 0% | 0% | 0% | 0% | 1.0% | 1.1% | 92 ± 8 µM | 0% | 0% | 0% | 0%
4 | O=C(CCl)NCC1CCN(C(=O)C2(Nc3ccccc3)CCC2)CC1 [compound 98] | 0% | 1.5% | 4.0% | 4.0% | 0% | 0% | 0% | 0% | > 150 µM | 0% | 0% | 0% | 0%
5 | O=C(CCl)NCC1CCN(C(=O)C2(Nc3ccccc3)CCCCC2)CC1 [compound 121] | 0% | 0% | 0% | 0% | 0% | 0% | 0% | 0% | > 150 µM | 0% | 0% | 0% | 0%
6 | Cl.O=C(CCl)NCC1CCN(C(=O)C2(Nc3ccccc3)CCNCC2)CC1 [compound 133] | 0.7% | 1.1% | 1.2% | 10.3% | 4.5% | 12.9% | 26.7% | 47.0% | 115 µM | 0% | 1.0% | 1.1% | 1.1%

The next compounds have a lower EC50 (14-3-3σ/ERα [2]) than those just listed; values first:

Row | Percentage (%) bound of compound to 14-3-3σ, APO 1h (14-3-3σ) | Percentage (%) bound of compound to 14-3-3σ, APO 8h (14-3-3σ) | Percentage (%) bound of compound to 14-3-3σ, APO 16h (14-3-3σ) | Percentage (%) bound of compound to 14-3-3σ, APO 24h (14-3-3σ) | Percentage (%) bound of compound to 14-3-3σ, ERα 1h (14-3-3σ/ERα [1]) | Percentage (%) bound of compound to 14-3-3σ, ERα 8h (14-3-3σ/ERα [1]) | Percentage (%) bound of compound to 14-3-3σ, ERα 16h (14-3-3σ/ERα [1]) | Percentage (%) bound of compound to 14-3-3σ, ERα 24h (14-3-3σ/ERα [1]) | EC50 (14-3-3σ/ERα [2]) | Percentage (%) bound of compound to 14-3-3σ, CRAF 1h (14-3-3σ/C-RAF) | Percentage (%) bound of compound to 14-3-3σ, CRAF 8h (14-3-3σ/C-RAF) | Percentage (%) bound of compound to 14-3-3σ, CRAF 24h (14-3-3σ/C-RAF; 24h) | Percentage (%) bound of compound to 14-3-3σ, CRAF 24h (14-3-3σ/C-RAF; head prints 24h) | Structure (SMILES)
7 | 0% | 0% | 1.0% | 1.0% | 0.8% | 4.7% | 11.0% | 18.8% | 33 ± 1 µM | 4.7% | 8.0% | 32.4% | 11.6% | C=CS(=O)(=O)NCC1CCN(C(=O)C(C)(C)Oc2ccc(Cl)cc2)CC1 [compound 17]
8 | 4.7% | 7.4% | 7.8% | 8.0% | 23.1% | 44.7% | 76.1% | 88.8% | 16 ± 1 µM | 0% | 0% | 0% | 0% | O=C(CCl)NCCCC1CCN(C(=O)C2(Nc3ccc(Cl)cc3)CCNCC2)CC1 [compound 153]
9 | 18.0% | 35.7% | 70.7% | 95.1% | 81.1% | 97.0% | 100% | 100% | 5 ± 0.3 µM | 54.7% | 62.3% | 99.4% | 92.0% | O=C(CCl)CCC1CCN(C(=O)C2(Nc3ccc(Cl)cc3)CCOCC2)CC1 [compound 156]
